# Patent US6545131B1, “Tissue specific prodrug” (priority 1997, dated 2003)
# Starred links: 1 amine or outer side, 2 acyl side, 3 side chain; linkers in the order of their positions; H or OH if unused. Residues, ends and D or L forms follow the SMILES beside them. *: point of attachment. Mu = morpholinocarbonyl, O=C(N1CCOCC1)*; AMC = Cc1cc(=O)oc2cc(N*)ccc12; Morpholide = C1CN(*)CCO1; CO = O=C([*:1])[*:2]; Dox = doxorubicin
# Assays:
# [1] = molecular target: T1, PSA (prostate specific antigen) (Homo sapiens, UniProt P07288); experiment: Cleavage of AMC-labelled peptide substrates by purified PSA (fluorescence of released AMC; Lineweaver-Burke kinetics); format: biochemical
# T1 construct: PSA was purified from human seminal plasma; from tissue; host or cells: human seminal plasma
# T1 sequence (P07288 25-261): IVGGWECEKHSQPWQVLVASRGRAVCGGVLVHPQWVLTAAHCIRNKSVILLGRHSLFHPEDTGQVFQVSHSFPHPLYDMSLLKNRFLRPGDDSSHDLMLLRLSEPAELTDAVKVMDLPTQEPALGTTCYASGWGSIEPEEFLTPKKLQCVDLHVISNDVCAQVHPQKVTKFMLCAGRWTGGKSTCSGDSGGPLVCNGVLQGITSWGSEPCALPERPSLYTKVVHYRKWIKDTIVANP
# [2] = Stability of PSA substrates in serum (AMC release); format: in vitro ADME; details: 0.2 mM substrate
# [3] = system: porcine liver esterase; experiment: PSA substrate cleavage by purified intracellular protease; format: biochemical; details: 0.2 mM substrate, pH 7.8; SKLQ, KLQ, LQ in 1.4% acetonitrile/buffer, Q-AMC in 0.2% formic acid/buffer
# Experimental: (§1) Cleavage was studied by measuring fluorescence change secondary to AMC release. Fluorescence detection was carried out with a Fluoroskan II 96 well fluorometric plate reader (ICN Biomedicals, Costa Mesa, Calif.), with excitation wavelength 355 nm and emission wavelength 460 nm. Data were collected and analyzed using Deltasoft III software (Biometallics, Princeton, N.J.). All reactions were performed at room temperature by the addition of substrate and proteases into PSA buffer, described below, in a final volume of 200 μL. The results were determined from the initial linear increase of fluorescence and were expressed as the picomoles of AMC released per minute based upon comparison to a standard curve of the fluorescence of known amounts of AMC (i.e., fluorescence was linear form 20 to 300 picomoles of AMC). The data were analyzed by Lineweaver-Burke reciprocal plots to determine the Michaelis-Menten constant (i.e., Km) expressed as the amount of substrate needed to saturate half of the enzyme and the catalytic rate constant (i.e., kcat) expressed as the amount of substrate converted to product per time per amount of enzyme.
# (§2) A family of peptide substrates based upon the EHSSKLQ (SEQ ID NO:10) sequence was assayed for activity for the intracellular proteases, and the results given in Table 4.
# (§3) The amino acid sequences expressed in one letter amino acid code represent the following amino acid sequences in the three letter amino acid code: EHSSKLQ (Glu-His-Ser-Ser-Lys-Leu-Gln; SEQ ID NO:10), The shorter sequences are formed by deleting amino acids from the amino terminal side of the sequence. Determinations listed in the table were carried out with substrates at 0.2 mM concentration in the PSA assay buffer (50 mM Tris/0.1M NaCl pH 7.8), except SKLQ (SEQ ID NO:1), KLQ and LQ, which were carried out in 1.4% acetonitrile/buffer and Q-AMC which was carried out in 0.2% formic acid/buffer, at pH 7.8. The entry “UD” stands for “undetectable” and means that at most, 0.1 pmole of substrate cleavage per minute per 200 pmole protease took place. Asterisks represent experiments not performed. Abbreviations are as follows: PSA (prostate specific antigen), Cath B, C, D (Cathepsins, B, C, D), Esterase (porcine liver esterase).
# [4] = molecular target: T2, Cathepsin D (Homo sapiens, UniProt P07339); experiment: as above; format: biochemical; details: 0.2 mM substrate, pH 7.8; SKLQ, KLQ, LQ in 1.4% acetonitrile/buffer, Q-AMC in 0.2% formic acid/buffer
# T2 construct: purchased Sigma Chemical Co
# T2 sequence (P07339 65-412): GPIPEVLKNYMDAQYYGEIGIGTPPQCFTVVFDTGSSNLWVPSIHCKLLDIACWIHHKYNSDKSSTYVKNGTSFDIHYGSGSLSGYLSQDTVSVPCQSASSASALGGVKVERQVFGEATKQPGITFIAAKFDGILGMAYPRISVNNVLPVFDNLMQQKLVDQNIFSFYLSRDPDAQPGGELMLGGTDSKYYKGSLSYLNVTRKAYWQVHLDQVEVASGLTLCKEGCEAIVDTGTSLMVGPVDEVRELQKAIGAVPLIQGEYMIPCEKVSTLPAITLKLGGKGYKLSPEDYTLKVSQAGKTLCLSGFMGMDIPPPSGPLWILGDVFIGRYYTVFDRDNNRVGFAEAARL
# Experimental: as §1, §2, §3
# [5] = molecular target: T3, Cathepsin B (Homo sapiens, UniProt P07858); experiment: as above; format: biochemical; details: 0.2 mM substrate, pH 7.8; SKLQ, KLQ, LQ in 1.4% acetonitrile/buffer, Q-AMC in 0.2% formic acid/buffer
# T3 construct: purchased Sigma Chemical Co
# Experimental: as §1, §2, §3
# [6] = molecular target: T4, Cathepsin C (Homo sapiens, UniProt P53634); experiment: as above; format: biochemical; details: 0.2 mM substrate, pH 7.8; SKLQ, KLQ, LQ in 1.4% acetonitrile/buffer, Q-AMC in 0.2% formic acid/buffer
# T4 construct: purchased Sigma Chemical Co
# T4 sequence (P53634 25-463): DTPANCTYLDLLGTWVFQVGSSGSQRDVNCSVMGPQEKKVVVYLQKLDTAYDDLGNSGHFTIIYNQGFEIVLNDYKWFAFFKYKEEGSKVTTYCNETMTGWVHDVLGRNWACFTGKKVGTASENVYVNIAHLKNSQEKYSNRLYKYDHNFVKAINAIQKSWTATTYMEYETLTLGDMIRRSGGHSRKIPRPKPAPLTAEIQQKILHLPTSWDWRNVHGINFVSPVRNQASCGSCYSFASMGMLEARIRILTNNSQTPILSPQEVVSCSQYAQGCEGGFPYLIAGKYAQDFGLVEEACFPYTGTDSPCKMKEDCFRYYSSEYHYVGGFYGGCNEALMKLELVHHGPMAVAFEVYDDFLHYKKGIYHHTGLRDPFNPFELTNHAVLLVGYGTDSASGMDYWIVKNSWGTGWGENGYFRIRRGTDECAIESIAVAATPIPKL
# Experimental: as §1, §2, §3
# [7] = molecular target: T5, urokinase (Homo sapiens, UniProt P00749); experiment: Peptide-AMC cleavage by purified extracellular protease; format: biochemical; details: 0.2 mM substrate, PSA assay buffer pH 7.8
# T5 construct: purchased Calbiochem
# [8] = molecular target: T6, tissue plasminogen activator (TPA) (Homo sapiens, UniProt P00750); experiment: as above; format: biochemical; details: 0.2 mM substrate, PSA assay buffer pH 7.8
# T6 construct: purchased Calbiochem
# T6 sequence (P00750 36-562, species assumed): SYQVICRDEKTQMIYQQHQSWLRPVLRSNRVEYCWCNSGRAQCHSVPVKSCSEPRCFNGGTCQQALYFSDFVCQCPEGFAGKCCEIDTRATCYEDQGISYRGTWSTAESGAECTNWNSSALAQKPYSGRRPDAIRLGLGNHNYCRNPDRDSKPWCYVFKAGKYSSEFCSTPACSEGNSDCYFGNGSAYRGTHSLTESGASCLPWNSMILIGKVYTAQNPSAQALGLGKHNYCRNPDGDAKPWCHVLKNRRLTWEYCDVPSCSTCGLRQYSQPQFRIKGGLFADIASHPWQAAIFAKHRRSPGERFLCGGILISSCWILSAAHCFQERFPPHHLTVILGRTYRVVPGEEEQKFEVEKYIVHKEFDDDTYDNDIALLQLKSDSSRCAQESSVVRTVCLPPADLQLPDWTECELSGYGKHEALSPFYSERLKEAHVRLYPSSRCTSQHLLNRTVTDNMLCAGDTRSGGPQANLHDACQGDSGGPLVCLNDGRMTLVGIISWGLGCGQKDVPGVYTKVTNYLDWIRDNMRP
# [9] = system: human kallikrein, hK1; experiment: as above; format: biochemical; details: 0.2 mM substrate, PSA assay buffer pH 7.8
# [10] = system: Trypsin; experiment: as above; format: biochemical; details: 0.2 mM substrate, PSA assay buffer pH 7.8
# [11] = molecular target: T7, chymotrypsin (Bos taurus, UniProt P00766); experiment: as above; format: biochemical; details: 0.2 mM substrate, PSA assay buffer pH 7.8
# T7 construct: purchased Sigma Chemical Co
# [12] = system: Elastase; experiment: as above; format: biochemical; details: 0.2 mM substrate, PSA assay buffer pH 7.8
# [13] = molecular target: T8, Plasmin (Homo sapiens, UniProt P00747); experiment: as above; format: biochemical; details: 0.2 mM substrate, PSA assay buffer pH 7.8
# T8 construct: purchased Calbiochem
# T8 sequence (P00747 581-810 limits assumed, species assumed): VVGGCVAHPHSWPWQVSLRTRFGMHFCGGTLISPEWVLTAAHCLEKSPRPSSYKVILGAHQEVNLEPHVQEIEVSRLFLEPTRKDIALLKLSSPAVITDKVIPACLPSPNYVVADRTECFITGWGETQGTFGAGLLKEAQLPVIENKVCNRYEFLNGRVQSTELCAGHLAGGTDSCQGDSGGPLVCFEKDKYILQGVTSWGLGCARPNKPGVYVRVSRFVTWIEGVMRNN
# T8 sequence (P00747 97-580 partner limits assumed, species assumed): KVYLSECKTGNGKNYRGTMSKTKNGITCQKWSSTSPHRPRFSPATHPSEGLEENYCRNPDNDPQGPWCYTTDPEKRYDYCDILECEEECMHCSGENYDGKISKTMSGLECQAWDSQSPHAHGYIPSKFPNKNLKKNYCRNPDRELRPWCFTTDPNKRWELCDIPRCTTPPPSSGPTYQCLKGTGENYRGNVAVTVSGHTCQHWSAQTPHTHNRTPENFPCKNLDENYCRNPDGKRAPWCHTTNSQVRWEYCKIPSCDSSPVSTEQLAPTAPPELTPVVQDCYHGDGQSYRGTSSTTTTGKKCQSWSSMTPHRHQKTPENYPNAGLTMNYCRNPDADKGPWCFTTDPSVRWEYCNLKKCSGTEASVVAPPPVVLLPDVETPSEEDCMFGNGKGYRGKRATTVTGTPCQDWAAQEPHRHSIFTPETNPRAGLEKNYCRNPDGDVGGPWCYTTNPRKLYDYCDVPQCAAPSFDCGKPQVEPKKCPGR
# [14] = molecular target: T9, thrombin (Homo sapiens, UniProt P00734); experiment: as above; format: biochemical; details: 0.2 mM substrate, PSA assay buffer pH 7.8
# T9 construct: purchased Sigma Chemical Co
# [15] = cited from earlier work
# [16] = Clonogenic survival of TSU-Pr1 cells after 72 hours exposure to TG analogs; format: cell-based, human; details: human; TSU-Pr1, 72 hours exposure; mean (n=5) ± standard error; read-out: LC50 (concentration needed to kill 50% of clonogenic cells)
# Summary of the method: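 Androgen-independent human prostate cancer TSU-Pr1 cells (2×10^5) were exposed for 72 h to varying thapsigargin analog concentrations, and clonogenic survival was then assessed. LC50 is the concentration killing 50% of clonogenic cells, reported as mean of n=5 ± SE.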
# [17] = molecular target: T10, endoplasmic reticulum Ca2+-ATPase (SERCA), SR vesicles from rabbit skeletal muscle (Oryctolagus cuniculus, UniProt P04191); experiment: SERCA inhibition: 45Ca2+ uptake to sarcoplasmic reticulum vesicles; format: biochemical; details: mean (n=3) ± standard error; 5 μg/ml SR protein, free Ca2+ 100 nM, 4 min uptake; read-out: IC50 (50% inhibition of 45Ca2+ uptake to SR vesicles)
# T10 construct: sarcoplasmic reticulum (SR) vesicles prepared from rabbit skeletal muscle; from tissue; host or cells: rabbit skeletal muscle sarcoplasmic reticulum vesicles
# T10 sequence (P04191 1-994 isoform P04191-2): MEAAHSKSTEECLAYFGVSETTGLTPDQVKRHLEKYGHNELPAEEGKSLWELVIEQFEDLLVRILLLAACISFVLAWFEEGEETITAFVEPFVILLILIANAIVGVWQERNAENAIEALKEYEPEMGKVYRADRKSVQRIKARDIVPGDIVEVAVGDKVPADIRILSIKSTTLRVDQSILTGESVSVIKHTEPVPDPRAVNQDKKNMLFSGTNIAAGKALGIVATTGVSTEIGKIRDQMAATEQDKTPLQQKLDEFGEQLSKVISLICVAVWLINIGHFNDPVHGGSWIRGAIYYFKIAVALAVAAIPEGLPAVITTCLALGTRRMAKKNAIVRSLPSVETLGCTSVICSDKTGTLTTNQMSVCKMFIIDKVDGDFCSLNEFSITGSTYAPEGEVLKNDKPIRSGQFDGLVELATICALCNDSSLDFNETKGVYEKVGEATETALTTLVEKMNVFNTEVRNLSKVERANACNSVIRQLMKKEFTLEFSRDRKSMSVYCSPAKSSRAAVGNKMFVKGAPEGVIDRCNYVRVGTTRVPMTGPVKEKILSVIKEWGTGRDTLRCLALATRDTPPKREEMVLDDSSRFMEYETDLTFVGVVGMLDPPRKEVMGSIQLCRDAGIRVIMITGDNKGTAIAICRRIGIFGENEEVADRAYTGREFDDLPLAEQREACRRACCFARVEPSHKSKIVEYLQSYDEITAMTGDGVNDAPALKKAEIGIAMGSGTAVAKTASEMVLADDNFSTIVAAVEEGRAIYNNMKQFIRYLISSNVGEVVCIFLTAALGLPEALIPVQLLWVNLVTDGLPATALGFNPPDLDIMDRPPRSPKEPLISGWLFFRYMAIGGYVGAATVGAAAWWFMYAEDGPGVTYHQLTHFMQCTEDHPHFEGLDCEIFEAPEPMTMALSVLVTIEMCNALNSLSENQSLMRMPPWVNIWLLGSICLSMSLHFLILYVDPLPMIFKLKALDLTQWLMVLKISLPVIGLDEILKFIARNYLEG
# Experimental: The primary amine-containing thapsigargin analogs of the invention have endoplasmic reticulum Ca^2+-ATPase inhibitory activity. This activity is measured as the concentration of analog needed to inhibit 50% of this ATPase (IC50). The IC50 of the analogs of the invention is desirably at most 500 nM, preferably at most 200 nM, and more preferably at most 50 nM of analog.
# The inhibitory potency of thapsigargin and its analogs was determined as the concentration required to produce 50% inhibition (i.e. IC50) of ^45Ca^2+ uptake to sarcoplasmic reticulum (SR) vesicles prepared from rabbit skeletal muscle by the method of De Meis and Hasselbach (J. Biol. Chem., 246: 4759-4763, 1971). The ^45Ca^2+ uptake assay was as described previously (Christensen, et al., FEBS, 335: 345-348, 1993), with the following modifications: 5 μg/ml of SR protein was incubated at 25EC and free Ca^2+ adjusted to 100 nM using 4 min. uptake time. Under these conditions, Ca^2+ could proceed linearly with time for at least 8 minutes. Measurements of Ca^2+ within TSU cells was determined as described previously (Lin et al., The Prostate, 33:201-207, 1997).
# The IC50 results are mean (n=3)±standard error. The LC50 results are mean (n=5)±standard error. The entry “ND” stands for “not determined”. Clonogenic survival not determined above 10 μM for dBTG. Analogs with −boc have a t-butoxycarbonyl (boc) protected amino group.
# [18] = Cytotoxic activity (LD50) of thapsigargin and debutanoyl derivative; format: cell-based
# Experimental: The starting material for all the synthesized analogs is 8-O-debutanoylthapsigargin, which is easily available by triethylamine catalyzed methanolysis of thapsigargin. Removal of the butanoyl results in loss of cytotoxic activity with an LD50 of >50 μM compared to <100 nM for thapsigargin. Anhydrides of dicarboxylic acids of various lengths afforded analogs in which the acyl group attached to the O-8 ended in a free carboxylic acid. A dicyclohexylcarbodiimide (DCCI) promoted coupling of a 2,4-diaminoarene to the carboxylic acid analogs affords the derivatives in which contain a primary aromatic amine as a potential coupling point for additional moeities.
# [19] = molecular target: sarcoplasmic reticulum (SR) and endoplasmic reticulum (ER) Ca2+-ATPase (SERCA) pump; details: read-out: apparent dissociation constant; cited from earlier work
# [20] = system: TSU-Pr1 cells; experiment: Clonogenic survival of TSU-Pr1 cells after 48 hr exposure to doxorubicin prodrugs with or without exogenously added PSA; format: cell-based, human; details: 50 μM prodrug
# Experimental: The androgen responsive PSA-producing LNCaP and androgen independent PSA non-producing TSU-Pr1 are human prostate cancer lines were obtained from ATCC (Rockville, Md.) and maintained by serial passage in RPMI 1640 media containing 10% fetal calf serum with 100 units/ml penicillin G, and 100 units/ml streptomycin sulfate (antibiotics from M.A. Bioproducts, Walkerville, Md.) as standard media in 5% CO2/95% air at 37° C. The origins and characteristics of the LNCaP and TSU-Pr1 cell lines are described in Horoszewicz, et al., Cancer Res., 43:1809-1818, (1980)and Iizumi, et al., J. Urol, 137: 1304-1306, (1987).
# Percentage clonogenic survival of TSU-Pr1 (2×10^5 cells) following 48 hr. exposure to varying concentrations of doxorubicin prodrugs with or without exogenously added PSA was performed as described in Martikainen et al., Cancer Res., 51:4693-4700, (1991).
# Results for Mu-His-Ser-Ser-Lys-Leu-Gln-doxorubicin (SEQ ID NO:16) at 50 μM, were 122 colonies for treatment without PSA, and 110 colonies for treatment with 30 μg/ml enzymatically active PSA. Results are shown as averages (n=5) with standard error of 2 to 7. Assays were done in triplicate.
# [21] = PSA substrate, PSA assay buffer pH 7.8, Lineweaver-Burke
molecule,measurement,setting,value
"Cc1cc(=O)oc2cc(NC(=O)[C@H](CCC(N)=O)NC(=O)[C@H](CC(C)C)NC(=O)[C@H](CCCCN)NC(=O)[C@H](CO)NC(=O)[C@H](CO)NC(=O)[C@H](Cc3c[nH]cn3)NC(=O)[C@H](CCC(=O)O)NC(=O)N3CCOCC3)ccc12 [EHSSKLQ, Glu-His-Ser-Ser-Lys-Leu-Gln] ({Morpholide-CO}-EHSSKLQ-{AMC})",Picomoles of substrate cleaved/minute/200 pmoles of indicated protease: PSA,"[1]; 0.2 mM substrate, PSA assay buffer pH 7.8, room temperature",31.6 picomoles/minute/200 pmoles pr
same,picomoles of peptide cleaved/min/200 picomoles protease: PSA,"[1]; 0.2 mM substrate, pH 7.8, SKLQ, KLQ, LQ in 1.4% acetonitrile/buffer, Q-AMC in 0.2% formic acid/buffer",31.6 picomoles/min/200 picomoles pr
same,Kcat,[1]; [21],0.02 s⁻¹
same,Km,[1]; [21],1160 µM
same,picomles AMC released/minute: Calf,[2],UD (not more than 0.01 picomole of substrate per minute was cleaved)
same,picomles AMC released/minute: Fetal Calf,[2],UD (not more than 0.01 picomole of substrate per minute was cleaved)
same,picomles AMC released/minute: Goat,[2],UD (not more than 0.01 picomole of substrate per minute was cleaved)
same,picomles AMC released/minute: Mouse,[2],2.17 picomoles/minute
same,picomles AMC released/minute: Rat,[2],0.06 picomoles/minute
same,picomles AMC released/minute: Human,[2]; human serum 100%,UD (not more than 0.01 picomole of substrate per minute was cleaved)
same,picomoles of peptide cleaved/min/200 picomoles protease: Esterase,[3],"UD (at most, 0.1 pmole of substrate cleavage per minute per 200 pmole protease took place)"
same,picomoles of peptide cleaved/min/200 picomoles protease: Cath D,[4],2.2 picomoles/min/200 picomoles pr
same,picomoles of peptide cleaved/min/200 picomoles protease: Cath B,[5],4.3 picomoles/min/200 picomoles pr
same,picomoles of peptide cleaved/min/200 picomoles protease: Cath C,[6],"UD (at most, 0.1 pmole of substrate cleavage per minute per 200 pmole protease took place)"
same,Picomoles of substrate cleaved/minute/200 pmoles of indicated protease: Urokin,[7],"UD (at most, 0.1 pmole of substrate cleavage per minute per 200 pmole protease took place)"
same,Picomoles of substrate cleaved/minute/200 pmoles of indicated protease: TPA,[8],"UD (at most, 0.1 pmole of substrate cleavage per minute per 200 pmole protease took place)"
same,Picomoles of substrate cleaved/minute/200 pmoles of indicated protease: Kallik,[9],"UD (at most, 0.1 pmole of substrate cleavage per minute per 200 pmole protease took place)"
same,Picomoles of substrate cleaved/minute/200 pmoles of indicated protease: Trypsin,[10],"UD (at most, 0.1 pmole of substrate cleavage per minute per 200 pmole protease took place)"
same,Picomoles of substrate cleaved/minute/200 pmoles of indicated protease: Chymo,[11],"UD (at most, 0.1 pmole of substrate cleavage per minute per 200 pmole protease took place)"
same,Picomoles of substrate cleaved/minute/200 pmoles of indicated protease: Elastase,[12],"UD (at most, 0.1 pmole of substrate cleavage per minute per 200 pmole protease took place)"
same,Picomoles of substrate cleaved/minute/200 pmoles of indicated protease: Plasmin,[13],"UD (at most, 0.1 pmole of substrate cleavage per minute per 200 pmole protease took place)"
same,Picomoles of substrate cleaved/minute/200 pmoles of indicated protease: Thromb,[14],"UD (at most, 0.1 pmole of substrate cleavage per minute per 200 pmole protease took place)"
"C/C=C(/C)C(=O)O[C@H]1C(C)=C2[C@H]([C@@H]1OC(=O)CCCCCCC)[C@@](C)(OC(C)=O)C[C@H](OC(=O)CCC)[C@@]1(O)[C@H]2OC(=O)[C@@]1(C)O [TG, Thapsigargin]",solubility in water,[15],poorly soluble in water
same,CC50,[16],30 ± 4 nM
same,IC50,[17],5 ± 0.3 nM
same,LD50 (cytotoxic activity),[18],< 0.1 µM
same,Kd,[19],≤ 0.0022 nM
"C/C=C(/C)C(=O)O[C@H]1C(C)=C2[C@H]([C@@H]1OC(=O)CCCCCCC)[C@@](C)(OC(C)=O)C[C@H](O)[C@@]1(O)[C@H]2OC(=O)[C@@]1(C)O [dBTG, 8-O-debutanoylthapsigargin, reference compound]",CC50,[16],> 10000 nM
same,IC50,[17],149 ± 21 nM
same,LD50 (cytotoxic activity),[18],> 50 µM
Mu-His-Ser-Ser-Lys-Leu-Gln-doxorubicin (Mu-HSSKLQ-Dox; listed as Homo sapiens) [doxorubicin prodrug without Leu linker; b202 describes it as acetyl-capped],"number of TSU-Pr1 colonies, treatment with 30 μg/ml enzymatically active PSA",[20]; with 30 μg/ml PSA,110 colonies
same,"number of TSU-Pr1 colonies, treatment without PSA",[20]; without PSA,122 colonies
